Data taken from patent US12534496B2, “Polymorphic forms of Cyclo (-His-Pro) and methods of use to treat kidney disease” (NovMetaPharma Co., Ltd., priority 2018, dated 2026).
“Also recorded” adds a separate entry of the source.

Legend:
[1] = Variable temperature and humidity XRPD (VT-/VH-XRPD); assay type: physicochemical
Method: VT-/VH-XRPD analysis was carried out on a Philips X'Pert ProMultipurpose diffractometer equipped with a temperature and humidity chamber. The samples were scanned between 4 and 35.99° 2θ using Cu K radiation (α1λ=1.54060 Å; α2=1.54443 Å; β=1.39225 Å; α1:α2 ratio=0.5) running in Bragg-Brentano geometry (step size 0.008° 2θ) using 40 kV/40 mA generator settings. Measurements were performed at each step of the humidity profile below:
Program: 40% RH/ambient temperature—initial scan
• 0% RH/ambient temperature—initial scan, 1-hour hold, scan • 0% RH/80° C.—initial scan, 20-minute hold, scan • 0% RH/80° C.—initial scan, 80-minute hold, scan 11. High Performance Liquid Chromatography-Ultraviolet Detection (HPLC-UV) Instrument: Dionex Ultimate 3000 Column: LC/168 X-Bridge Phenyl Column (150 mm×4.6 mm×3.5 μm) Column Temperature: 30° C. Autosampler Temperature: 5° C. UV wavelength: 220 nm Injection Volume: 5 μL Flow Rate: 1 ml/min Mobile Phase A: 10 mM Ammonium acetate Mobile Phase B: Acetonitrile Diluent: 0.1% TFA in water Gradient program: […]

[2] = Variable temperature dynamic vapour sorption (VT-DVS) at 40, 50, 60 °C; assay type: physicochemical; conditions: for Post-VT-DVS XRPD form: after cycles at 40, 50 and 60 °C
Method: Approximately, 10-20 mg of sample was placed into a mesh vapor sorption balance pan and loaded into a DVS Advantage dynamic vapor sorption balance by Surface Measurement Systems. The sample was subjected to a ramping profile from 40-90% relative humidity (RH) at 10% increments, maintaining the sample at each step until a stable weight had been achieved (dm/dt 0.004%, minimum step length 30 minutes, maximum step length 500 minutes) at 40° C. After completion of the sorption cycle, the sample was dried using the same procedure to 0% RH and then a second sorption cycle back to 40% RH. The weight change during the sorption/desorption cycles were plotted, allowing for the hygroscopic nature of the sample to be determined. The experiment was repeated at 50° C. and finally at 60° C. XRPD analysis was then carried out on any solid retained.

SMILES: O=C1N[C@@H](Cc2cnc[nH]2)C(=O)N2CCC[C@@H]12 [Pattern 2, Pyrrolo [1,2-a]pyrazine-1,4-dione, hexahydro-3-(1H-imidazol-5-ylmethyl)-, hydrate (1:1), (3S, 8aS)-]
- VT/VH-XRPD Identity ([1]; Run 1: 40% RH, ambient temperature): stable; also recorded: Pattern 2 was present
- VT/VH-XRPD Identity ([1]; Run 1: 40% RH, ambient temperature, listed as CHP Pattern 2): Pattern 2
- VT/VH-XRPD Identity ([1]; Run 2: 0% RH, ambient temperature, 1-hour hold): remains as Pattern 2; also recorded: Pattern 2 remained
- VT/VH-XRPD Identity ([1]; Run 2: 0% RH, ambient temperature, 1-hour hold, listed as CHP Pattern 2): Pattern 2
- VT/VH-XRPD Identity ([1]; Run 2: 0% RH, ambient temperature, 1-hour hold, listed as CHP pattern 2): Pattern 2 input material remained
- VT/VH-XRPD Identity ([1]; Run 3: 0% RH, 80 °C, 20-minute hold): converted Pattern 2 to Pattern 1; also recorded: pure Pattern 1
- VT/VH-XRPD Identity ([1]; Run 3: 0% RH, 80 °C, 20-minute hold, listed as CHP Pattern 2): Pattern 1
- VT/VH-XRPD Identity ([1]; Run 3: 0% RH, 80 °C, 20-minute hold, listed as CHP pattern 2): changed form which was assigned as pure pattern 1
- VT/VH-XRPD Identity ([1]; Run 4: 0% RH, 80 °C, 80-minute hold): pure Pattern 1 remained
- VT/VH-XRPD Identity ([1]; Run 4: 0% RH, 80 °C, 80-minute hold, listed as CHP Pattern 2): Pattern 1
- VT/VH-XRPD Identity ([1]; Run 4: 0% RH, 80 °C, 80-minute hold, listed as CHP pattern 2): Pure pattern 1 remained
- VT-DVS water loss in equivalents ([2]; 40 °C, from 10 to 0% RH): 0.8 equiv water
- VT-DVS weight loss ([2]; 40 °C, from 10 to 0% RH): approx. 5.8 wt %
- VT-DVS weight loss ([2]; 40 °C, from 10 to 0% RH, listed as CHP Hydrate, Pattern 2): 5.8 wt %
- VT-DVS weight loss ([2]; 40 °C, from 10 to 0% RH, listed as CHP pattern 2): approximately 5.8 wt %
- VT-DVS water loss in equivalents ([2]; 50 °C, from 20 to 0% RH): 0.8 equiv water
- VT-DVS weight loss ([2]; 50 °C, from 20 to 0% RH): approximately 6.1 wt %
- VT-DVS weight loss ([2]; 50 °C, from 20 to 0% RH, listed as CHP Hydrate, Pattern 2): 6.1 wt %
- VT-DVS weight loss ([2]; 50 °C, from 20 to 0% RH, listed as CHP pattern 2): approx. 6.1 wt %
- VT-DVS water loss in equivalents ([2]; 60 °C, from 20 to 0% RH): 1.0 equiv water
- VT-DVS weight loss ([2]; 60 °C, from 20 to 0% RH): approximately 7 wt %
- VT-DVS weight loss ([2]; 60 °C, from 20 to 0% RH, listed as CHP Hydrate, Pattern 2): 7 wt %
- VT-DVS weight loss ([2]; 60 °C, from 20 to 0% RH, listed as CHP pattern 2): approx. 7 wt %
- RH below which dehydration starts ([2]; VT-DVS at 40 °C): below 10 % RH
- RH below which dehydration starts ([2]; VT-DVS at 50 °C): below 20 % RH
- RH below which dehydration starts ([2]; VT-DVS at 60 °C): below 20 % RH
- Post-VT-DVS XRPD form [2]: mixture of Patterns 1 and 2
- Post-VT-DVS XRPD form ([2]; listed as CHP pattern 2): mixture of pattern 1 and pattern 2; also recorded: mixture of pattern 1 and 2
